Like-named read-outs stand apart in the source and are kept apart here.
Columns and labels:
[1] = test system: HepG2-A16-CD81EGFP cells; conditions: averaged response (percent)
[2] = test system: P. falciparum Dd2 (clone B2) asexual blood stage parasites; assay: P. falciparum Dd2 asexual blood stage SYBR Green-I 72 h proliferation assay (qHTS); assay type: cell-based, Plasmodium falciparum; conditions: averaged P. falciparum asexual blood stage potency, log10 of AC50 in M
[3] = test system: P. berghei-ANKA-GFP-LucCON liver stage parasites in HepG2-A16-CD81EGFP cells; assay: P. berghei liver stage Pb-Luc assay, Method 1 (UCSD, 1536-well); assay type: cell-based, Plasmodium berghei; conditions: P. berghei liver stage, averaged response (percent); for Average P. berghei 1 µM response (%): the header list (r8) defines it as the 1 µM dose
[4] = HepG2, the header list (r10) describes it as the 1 µM dose

Compound | Average HepG2 3 µM response( %) ([1]; HepG2, 3 µM dose) [%] | Average HepG2 3 µM response( %) [1, 4] [%] | Pf ABS Log AC50 (M) [2] [M] | Average P. berghei 3 µM response( %) [3] [%] | Average P. berghei 1 µM response (%) [3] [%]
CCCCCC(=O)O[C@]1(C(C)=O)CC[C@H]2[C@@H]3CCC4=CC(=O)CC[C@]4(C)[C@H]3CC[C@@]21C [MLS000028438] | 104 | 104 | -5.700 | 29 | 85
CCOC(=O)c1cn(CC)c2cc(N3CCSCC3)c(F)cc2c1=O [MLS000038775] | 85 | 89 | -6.012 | 21 | –
Clc1ccc(-c2nnc(N3CCCC3)nn2)cc1 [MLS000038815] | 104 | 104 | -5.512 | 153 | 160
Oc1cc2c(cc1CN1CCN(c3ccccc3)CC1)CCC2 [MLS000058156] | 101 | 102 | -5.587 | 107 | 92
O=C(Nc1ccc(Cl)cc1)Nc1ccc2c(c1)N1CCN=C1S2 [MLS000078440] | 94 | 98 | -5.612 | 69 | –
CCCCn1c2c(c(=N)c3c1CCC3)CCC2 [MLS000080126] | 80 | 110 | -5.587 | 4 | 41
N=c1c2c(n(Cc3ccccc3)c3c1CCC3)CCC2 [MLS000080128] | 74 | 94 | -5.712 | 16 | 14
Cc1ccc(-n2c(C)cc(C(=O)OCC(=O)N(C)C3CCS(=O)(=O)C3)c2C)cc1 (stereo not shown) [MLS000098265] | 101 | 101 | -5.487 | 106 | 136
COc1ccccc1NC(=O)CN1CCN(C(=O)c2ccco2)CC1 [MLS000122729] | 102 | 102 | -5.462 | 65 | 115
COc1cc(Br)c(C(C)NC(=O)c2cccc(Br)c2)cc1OC (stereo not shown) [MLS000325399] | 93 | 98 | -5.887 | 70 | 107
COc1cccc(CNCC(O)(c2ccc(Cl)cc2)c2ccc(Cl)cc2)c1 [MLS000325699] | 101 | 105 | -5.812 | 98 | 112
O=C(Nc1c(C(=O)c2ccccc2)oc2ccccc12)c1cc(-c2ccccc2O)n[nH]1 [MLS000331861] | 101 | 103 | -5.837 | 116 | 84

Source: article PMC7822874, “Chemoprotective antimalarials identified through quantitative high-throughput screening of Plasmodium blood and liver stage parasites” (Scientific Reports, 2021)
